Source: patent publication US20240132518A1, “CEPHALOSPORIN ANTIBACTERIAL COMPOUND AND PREPARATION METHOD THEREFOR” (priority 2021, published 2024)
Converted amounts (≈) assume the structure as drawn. Where two headings read alike, the source gives them in different places.

What was measured:
[1] = system: Carbapenem-resistant Pseudomonas aeruginosa (CRPA); assay: Antibacterial MIC assay (ID-CAMHB), carbapenem-resistant Pseudomonas aeruginosa; type: cell-based
Experimental: (§1) 1. The test compounds were dissolved in sterile normal saline, vortexed for uniformly mixing, and diluted in a 2-fold dilution with the sterile normal saline (11 concentration points in total). The test concentration range was 32-0.031 μg/mL, and two duplicate wells were set for each concentration. Additional wells without drug dosing were set as growth controls.
(§2) 2. 4 μL of the diluent was added to 196 μL of the bacterial suspension in a 96-well plate (the bacterial count in the bacterial suspension was 2-8×10^5 colony forming units/mL).
(§3) The minimum inhibitory concentration (MIC) assay was performed with reference to the Clinical and Laboratory Standards Institute (CLSI) guidelines.

[2] = system: Control strain (Escherichia coli) ATCC 25922; assay: Antibacterial MIC assay (ID-CAMHB), control strain Escherichia coli; type: cell-based
Experimental: as §1, §2, §3

[3] = system: Control strain (Pseudomonas aeruginosa) ATCC 27853; assay: Antibacterial MIC assay (ID-CAMHB), control strain Pseudomonas aeruginosa; type: cell-based
Experimental: as §1, §2, §3

[4] = system: Carbapenem-resistant Acinetobacter baumannii (CRAB); assay: Antibacterial MIC assay (ID-CAMHB), carbapenem-resistant Acinetobacter baumannii; type: cell-based
Experimental: as §1, §2, §3

[5] = system: Carbapenem-resistant Enterobacteriaceae (CRE, Klebsiella pneumoniae); assay: Antibacterial MIC assay (ID-CAMHB), carbapenem-resistant Enterobacteriaceae; type: cell-based
Experimental: as §1, §2, §3

[6] = Pharmacokinetic study in cynomolgus monkeys; type: in vivo; conditions: cynomolgus monkey, plasma, 10 mg/kg single intravenous infusion, individual animals
Experimental: An appropriate amount of a test compound was weighed precisely and added to a container, and 0.9% sodium chloride injection and 0.2 M NaOH solution were added thereto in an ice bath until the test compound was completely dissolved, so that a sample solution at a concentration of 2 mg/mL was obtained followed by storage at 2-8° C. for later use.
• Species and strain: cynomolgus monkey • Animal grade: general grade • Animal source: Guangxi Xiongsen Primate Experimental Animal Breeding Development Co., Ltd. • Number of the using of laboratory animal: SYXK (Su) 2019-0012
6 cynomolgus monkeys (half male and half female) were selected and randomly divided into 3 groups with 1 animal/sex in each group. The cynomolgus monkeys were administered with the test sample at a dose of 10 mg/kg by the single intravenous infusion. Blood samples were collected from each group of animals at the following time points: before administration, and 5 min, 15 min, 0.5 h, 1 h, 2 h, 4 h, 6 h, and 8 h after administration. In the test, the concentration of each test compound in the plasma of the cynomolgus monkey was detected by the LC-MS/MS method, and the lower limits of quantification of the analysis methods for the plasma samples were all 1 μg/mL. The plasma concentration data were analyzed by the non-compartmental analysis (NCA) of the analysis software for pharmacokinetic data, WinNonlin, pharmacokinetic parameters were calculated, and pharmacokinetic characteristics of the test compounds in cynomolgus monkeys after administration were investigated, with the results shown in the following table.

[7] = Pharmacokinetic study in ICR mice; type: in vivo; conditions: plasma; for AUC(0-inf) / AUC(0-t) / Cmax / Tmax / half-life: both sexes, mouse, sc
Experimental: The formulation for administration was prepared on ice. A proper amount of the test compound was precisely weighed out, and a 90% volume of normal saline was slowly added. The mixture was ultrasonically stirred in an ice-water bath until no large pieces existed. After the mixture was well mixed, a 1 M NaOH solution was added in small portions using a pipette.
• Species and strain: ICR mice • Animal grade: SPF • Animal source: Medicilon: 999M-018
Administration by subcutaneous injection: 3 mice/sex/time point; blood samples were collected at 9 time points: 0.083 h, 0.25 h, 0.5 h, 1 h, 2 h, 4 h, 6 h, 8 h and 24 h after administration. The collected blood samples were placed in EDTA-K2 anticoagulation blood collection tubes. The collected whole blood was placed on ice and centrifuged at 6800 g at 2-8° C. for 6 min to separate plasma within 1 h. After the centrifugation, the plasma was transferred to a centrifuge tube to which a plasma stabilizer had been added in advance (plasma:concentrated phosphoric acid=100:0.2; for example, 1 μL of 10% concentrated phosphoric acid was added to 50 μL of plasma). All the animals were subjected to careful clinical observation before administration and at each of the blood collection time points after administration, and the adverse reaction symptoms in the animals were recorded.

[8] = strain FDA-CDC AR-BANK#0439, AMR gene aac(6′)-Il, aadA1b, BCR1, IMP-18, OXA-50
[9] = strain FDA-CDC AR-BANK#0052, AMR gene OXA-58, OXA-100, sul2
[10] = strain FDA-CDC AR-BANK#0070, AMR gene OXA-58, OXA-100, sul2
[11] = strain FDA-CDC AR-BANK#0361, AMR gene TEM-1, SHV-12, KPC-2
[12] = strain FDA-CDC AR-BANK#0362, AMR gene TEM-1, SHV-11, KPC-2
[13] = strain FDA-CDC AR-BANK#0363, AMR gene TEM-1, SHV-12, KPC-2
[14] = strain FDA-CDC AR-BANK#0438, AMR gene aph(3′)-Ia, dfrA12, KPC-3, OmpK35, oqxA, oqxB, SHV-11
[15] = strain FDA-CDC AR-BANK#0453, AMR gene KPC-3, OmpK35, oqxA, oqxB, SHV-11, TEM-1B
[16] = both sexes, cynomolgus, iv, 10 mg/kg
[17] = 10 mg/kg subcutaneous injection
[18] = 100 mg/kg subcutaneous injection

C[C@H](CN(CCCNC(=O)c1ccc(O)c(O)c1Cl)C(=O)c1ccc(O)c(O)c1Cl)[N+]1(CC2=C(C(=O)[O-])N3C(=O)[C@@H](NC(=O)/C(=N\OC(C)(C)C(=O)O)c4csc(N)n4)[C@H]3SC2)CCCC1 [Compound 2]
MIC [1, 8]: 0.5 µg/mL (≈ 0.503 µM)
MIC ([1]; strain FDA-CDC AR-BANK#0441, AMR gene KPC-2): 8 µg/mL (≈ 8.05 µM)
MIC ([1]; strain FDA-CDC AR-BANK#0444, AMR gene aac(6′)-Il, dfrB5, OXA-4, tet(G), VIM-2): 4 µg/mL (≈ 4.02 µM)
MIC ([1]; strain FDA-CDC AR-BANK#0457, AMR gene aadA6, VIM-2): 0.25 µg/mL (≈ 0.252 µM)
MIC ([2]; ATCC25922): 0.125 µg/mL (≈ 0.126 µM)
MIC ([3]; ATCC27853): 0.0625 µg/mL (≈ 0.0629 µM)
MIC ([4]; strain FDA-CDC AR-BANK#0036, AMR gene strB, OXA-65, OXA-24, strA, sul2): 0.5 µg/mL (≈ 0.503 µM)
MIC [4, 9]: 0.125 µg/mL (≈ 0.126 µM)
MIC ([4]; strain FDA-CDC AR-BANK#0063, AMR gene OXA-23, OXA-65, OXA-24, sul2): 4 µg/mL (≈ 4.02 µM)
MIC [4, 10]: 0.25 µg/mL (≈ 0.252 µM)
MIC ([4]; strain FDA-CDC AR-BANK#0101, AMR gene strB, OXA-65, OXA-24, strA, sul2): 1 µg/mL (≈ 1.01 µM)
MIC [5, 11]: 1 µg/mL (≈ 1.01 µM)
MIC [5, 12]: 0.25 µg/mL (≈ 0.252 µM)
MIC [5, 13]: 0.5 µg/mL (≈ 0.503 µM)
MIC [5, 14]: 1 µg/mL (≈ 1.01 µM)
MIC [5, 15]: 1 µg/mL (≈ 1.01 µM)

CC(C)(O/N=C(\C(=O)N[C@@H]1C(=O)N2C(C(=O)[O-])=C(C[N+]3(CCCN(CCCNC(=O)c4ccc(O)c(O)c4Cl)C(=O)c4ccc(O)c(O)c4Cl)CCCC3)CS[C@H]12)c1csc(N)n1)C(=O)O [Compound 3]
MIC [1, 8]: 0.125 µg/mL (≈ 0.126 µM)
MIC ([1]; strain FDA-CDC AR-BANK#0441, AMR gene KPC-2, read-out: MIC): 2 µg/mL (≈ 2.01 µM)
MIC ([1]; strain FDA-CDC AR-BANK#0444, AMR gene aac(6′)-Il, dfrB5, OXA-4, tet(G), VIM-2, read-out: MIC): 2 µg/mL (≈ 2.01 µM)
MIC ([1]; strain FDA-CDC AR-BANK#0457, AMR gene aadA6, VIM-2, read-out: MIC): 0.25 µg/mL (≈ 0.252 µM)
AUC(0-inf) [6, 16]: 166 µg·h/mL
AUC(0-t) [6, 16]: 149 µg·h/mL
clearance [6, 16]: 1 mL/min/kg
half-life [6, 16]: 154 min
Cmax ([6]; both sexes, cynomolgus, iv, 10 mg/kg, read-out: Cmax): 55.2 µg/mL
MRT ([6]; both sexes, cynomolgus, iv, 10 mg/kg, read-out: MRT): 150 min
Vd ([6]; both sexes, cynomolgus, iv, 10 mg/kg, read-out: Vd): 0.223 L/kg
Tmax ([6]; both sexes): 4.8 min
AUC last ([6]; 10 mg/kg): 140.08 µg·h/mL
AUCinf ([6]; 10 mg/kg): 153.20 µg·h/mL
CL ([6]; 10 mg/kg): 1.088 mL/min/kg
Cmax ([6]; 10 mg/kg): 48.60 µg/mL
MRT ([6]; 10 mg/kg): 149 min
Vd ([6]; 10 mg/kg): 0.21311 L/kg
t1/2 ([6]; 10 mg/kg): 136 min
AUMC0-inf [7, 17]: 86.9 h · h · ug · mL^−1
AUMC0-t [7, 17]: 80.3 h · h · ug · mL^−1
Kel [7, 17]: 1.04 h⁻¹
MRTPO [7, 17]: 47.4 min
AUMC0-inf [7, 18]: 880.4 h · h · ug · mL^−1
AUMC0-t [7, 18]: 871.4 h · h · ug · mL^−1
Kel [7, 18]: 1.64 h⁻¹
MRTPO [7, 18]: 47.8 min
AUC(0-inf) [7, 17]: 110 µg·h/mL
AUC(0-t) [7, 17]: 109 µg·h/mL
Cmax [7, 17]: 114 µg/mL
Tmax [7, 17]: 15 min
half-life [7, 17]: 39.9 min
AUC(0-inf) [7, 18]: 1100 µg·h/mL
AUC(0-t) [7, 18]: 1100 µg·h/mL
Cmax [7, 18]: 936 µg/mL
Tmax [7, 18]: 30 min
half-life [7, 18]: 25.3 min
MIC ([2]; ATCC25922, ID-CAMHB, control strain ATCC 25922, read-out: MIC): 0.0625 µg/mL (≈ 0.0629 µM)
MIC ([3]; ATCC27853, ID-CAMHB, control strain ATCC 27853, read-out: MIC): 0.25 µg/mL (≈ 0.252 µM)
MIC ([4]; strain FDA-CDC AR-BANK#0036, AMR gene strB, OXA-65, OXA-24, strA, sul2, read-out: MIC): 0.25 µg/mL (≈ 0.252 µM)
MIC [4, 9]: 0.125 µg/mL (≈ 0.126 µM)
MIC ([4]; strain FDA-CDC AR-BANK#0063, AMR gene OXA-23, OXA-65, OXA-24, sul2, read-out: MIC): > 32 µg/mL
MIC [4, 10]: 0.125 µg/mL (≈ 0.126 µM)
MIC ([4]; strain FDA-CDC AR-BANK#0101, AMR gene strB, OXA-65, OXA-24, strA, sul2, read-out: MIC): 0.5 µg/mL (≈ 0.503 µM)
MIC [5, 11]: 0.5 µg/mL (≈ 0.503 µM)
MIC [5, 12]: 0.125 µg/mL (≈ 0.126 µM)
MIC [5, 13]: 0.125 µg/mL (≈ 0.126 µM)
MIC [5, 14]: 0.25 µg/mL (≈ 0.252 µM)
MIC [5, 15]: 0.5 µg/mL (≈ 0.503 µM)
